From US20230270881A1, “ONCOGENIC TRIM37 IS A TARGETABLE EPIGENETIC DRIVER OF METASTASIS AND LINKS CHEMORESISTANCE AND METASTATIC FATE IN TRIPLE-NEGATIVE BREAST CANCER” (University of Virginia Patent Foundation, priority 2020, published 2023)

T1: RAD50 (human, UniProt Q92878 1-1312)
T1 construct: Only co-sedimentation with TRIM37 is reported
T1 sequence (looked up): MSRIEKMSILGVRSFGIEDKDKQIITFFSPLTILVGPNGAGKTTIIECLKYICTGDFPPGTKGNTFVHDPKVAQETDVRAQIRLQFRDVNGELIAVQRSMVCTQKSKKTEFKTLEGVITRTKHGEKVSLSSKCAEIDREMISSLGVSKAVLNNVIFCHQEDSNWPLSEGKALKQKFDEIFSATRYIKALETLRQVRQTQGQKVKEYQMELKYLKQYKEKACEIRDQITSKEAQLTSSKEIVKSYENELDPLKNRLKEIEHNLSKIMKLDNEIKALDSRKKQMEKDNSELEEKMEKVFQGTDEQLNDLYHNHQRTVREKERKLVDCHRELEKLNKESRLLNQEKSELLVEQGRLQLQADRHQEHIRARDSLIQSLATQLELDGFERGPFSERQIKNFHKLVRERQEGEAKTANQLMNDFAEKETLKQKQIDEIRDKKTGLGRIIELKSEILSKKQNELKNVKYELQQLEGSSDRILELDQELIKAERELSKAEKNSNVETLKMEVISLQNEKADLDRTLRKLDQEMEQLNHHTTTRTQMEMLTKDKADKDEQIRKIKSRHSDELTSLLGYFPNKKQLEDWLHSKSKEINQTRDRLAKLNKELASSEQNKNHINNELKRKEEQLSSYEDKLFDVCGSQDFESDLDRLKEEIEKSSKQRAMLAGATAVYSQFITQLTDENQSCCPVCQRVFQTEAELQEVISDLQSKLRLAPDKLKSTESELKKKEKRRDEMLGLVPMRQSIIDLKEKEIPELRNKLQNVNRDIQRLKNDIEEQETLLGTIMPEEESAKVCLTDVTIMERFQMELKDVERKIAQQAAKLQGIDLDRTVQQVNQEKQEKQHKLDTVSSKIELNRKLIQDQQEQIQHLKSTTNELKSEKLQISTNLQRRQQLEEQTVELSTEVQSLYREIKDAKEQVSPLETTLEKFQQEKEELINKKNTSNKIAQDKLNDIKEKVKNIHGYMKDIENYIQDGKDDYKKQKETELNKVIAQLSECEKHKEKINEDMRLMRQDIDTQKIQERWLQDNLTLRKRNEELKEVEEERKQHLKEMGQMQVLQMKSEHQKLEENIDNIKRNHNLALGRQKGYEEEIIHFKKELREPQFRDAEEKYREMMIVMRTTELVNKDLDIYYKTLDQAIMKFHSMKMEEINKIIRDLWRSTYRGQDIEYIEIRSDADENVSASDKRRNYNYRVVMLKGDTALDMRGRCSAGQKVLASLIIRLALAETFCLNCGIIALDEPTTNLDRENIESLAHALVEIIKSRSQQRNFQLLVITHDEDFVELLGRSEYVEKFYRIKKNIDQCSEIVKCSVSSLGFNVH

B1: MRE11 (other, human, UniProt P49959 2-708, looked up)
chain: STADALDDENTFKILVATDIHLGFMEKDAVRGNDTFVTLDEILRLAQENEVDFILLGGDLFHENKPSRKTLHTCLELLRKYCMGDRPVQFEILSDQSVNFGFSKFPWVNYQDGNLNISIPVFSIHGNHDDPTGADALCALDILSCAGFVNHFGRSMSVEKIDISPVLLQKGSTKIALYGLGSIPDERLYRMFVNKKVTMLRPKEDENSWFNLFVIHQNRSKHGSTNFIPEQFLDDFIDLVIWGHEHECKIAPTKNEQQLFYISQPGSSVVTSLSPGEAVKKHVGLLRIKGRKMNMHKIPLHTVRQFFMEDIVLANHPDIFNPDNPKVTQAIQSFCLEKIEEMLENAERERLGNSHQPEKPLVRLRVDYSGGFEPFSVLRFSQKFVDRVANPKDIIHFFRHREQKEKTGEEINFGKLITKPSEGTTLRVEDLVKQYFQTAEKNVQLSLLTERGMGEAVQEFVDKEEKDAIEELVKYQLEKTQRFLKERHIDALEDKIDEEVRRFRETRQKNTNEEDDEVREAMTRARALRSQSEESASAFSADDLMSIDLAEQMANDSDDSISAATNKGRGRGRGRRGGRGQNSASRGGSQRGRADTGLETSTRSRNSKTAVSASRNMSIIDAFKSTRQQPSRNVTTKNYSEVIEVDESDVEEDIFPTTSKTDQRWSSTSSSKIMSQSQVSKGVDFESSEDDDDDPFMNTSSLRRNRR
notes: Only co-sedimentation with TRIM37 is reported
B2: tripartite motif-containing protein 37 (TRIM37) (enzyme)
chain: MDEQSVESIAEVFRCFICMEKLRDARLCPHCSKLCCFSCIRRWLTEQRAQCPHCRAPLQLRELVNCRWAEEVTQQLDTLQLCSLTKHEENEKDKCENHHEKLSVFCWTCKKCICHQCALWGGMHGGHTFKPLAEIYEQHVTKVNEEVAKLRRRLMELISLVQEVERNVEAVRNAKDERVREIRNAVEMMIARLDTQLKNKLITLMGQKTSLTQETELLESLLQEVEHQLRSCSKSELISKSSEILMMFQQVHRKPMASFVTTPVPPDFTSELVPSYDSATFVLENFSTLRQRADPVYSPPLQVSGLCWRLKVYPDGNGVVRGYYLSVFLELSAGLPETSKYEYRVEMVHQSCNDPTKNIIREFASDFEVGECWGYNRFFRLDLLANEGYLNPQNDTVILRFQVRSPTFFQKSRDQHWYITQLEAAQTSYIQQINNLKERLTIELSRTQKSRDLSPPDNHLSPQNDDALETRAKKSACSDMLLEGGPTTASVREAKEDEEDEEKIQNEDYHHELSDGDLDLDLVYEDEVNQLDGSSSSASSTATSNTEENDIDEETMSGENDVEYNNMELEEGELMEDAAAAGPAGSSHGYVGSSSRISRRTHLCSAATSSLLDIDPLILIHLLDLKDRSSIENLWGLQPRPPASLLQPTASYSRKDKDQRKQQAMWRVPSDLKMLKRLKTQMAEVRCMKTDVKNTLSEIKSSSAASGDMQTSLFSADQAALAACGTENSGRLQDLGMELLAKSSVANCYIRNSTNKKSNSPKPARSSVAGSLSLRRAVDPGENSRSKGDCQTLSEGSPGSSQSGSRHSSPRALIHGSIGDILPKTEDRQCKALDSDAVVVAVFSGLPAVEKRRKMVTLGANAKGGHLEGLQMTDLENNSETGELQPVLPEGASAAPEEGMSSDSDIECDTENEEQEEHTSVGGFHDSFMVMTQPPDEDTHSSFPDGEQIGPEDLSFNTDENSGR
notes: Endogenous TRIM37 in extracts of human TNBC cell lines (MDA MB 468 nuclear extract for co-immunoprecipitation, HCC1806 whole cell extract for sucrose gradient)

Legend:
MDA-MB-468 cells = experiment: Chemical inhibitor treatment with Dox, qRT-PCR of TRIM37; format: cell-based, human; conditions: in combination with Dox
Description: Quantitative RT-PCR (qRT-PCR). Total RNA was isolated and reverse transcribed using Superscript II Reverse Transcriptase (Invitrogen). Gene expression was normalized to Gapdh. Controls lacking reverse transcriptase were carried out in parallel to rule out the possibility of DNA contamination. Each sample was analyzed at least two independent times and the results from at least three different biological triplicates are presented.
(§1) Chemical inhibitor treatment. MDA-MB-468 cells were treated for 24 hrs with 10 µM Dox and small molecule inhibitors at the following concentrations: 10 µM KU000553 (Cayman Chemical), 50 µM AG490 (Cayman Chemical), and 40 µM HLM006474 (Sigma-Aldrich) for 24 hrs.

TRIM37 [1] = experiment: Directed-ChIP assays; format: cell-based, human; conditions: MDA MB 468 cells, in combination with Dox
Description: Directed-ChIP assays. ChIP assays were performed as described previously (Bhatnagar et al., 2014) using cell extracts prepared 1 day after Cas9 transduction or inhibitor treatment, and antibodies against BMI1 (Abcam), H2Aub (Cell Signaling Technology), TRIM37 (Abcam), STAT1 (Cell Signaling Technology), STAT3 (Cell Signaling Technology), E2F1 (Cell Signaling Technology), and as a negative control, IgG. Each ChIP experiment was carried out at least three independent times and the results from at least three biological experiments, with technical duplicates, are shown.
as §1

TRIM37 [2] = experiment: Immunoblotting of TRIM37 in treated cells; format: cell-based, human; conditions: TNBC cells
Description: Immunoblotting. Cell extracts were prepared by lysing cell pellet in RIPA buffer supplemented with 1 mM sodium ortho-vanadate and 10 mM PMSF. To prepare protein extract from mouse tissue, it was homogenized in lysis buffer (1% SDS, 1 mM sodium ortho-vanadate, 10 mM Tris pH 7.4 and protease inhibitor). Immunoblots were probed using antibodies against TRIM37 (Abcam), PARP (Cell Signaling Technology), p21 (Cell Signaling Technology), γ-ph-H2AX (Cell Signaling Technology), RAD51C (Invitrogen), ph-ATM (Cell Signaling Technology), ph-STAT1 (Cell Signaling Technology), ph-STAT3 (Cell Signaling Technology), ph-STAT5 (Cell Signaling Technology), BIM (Abcam), FOLR1 (R&D) and α-tubulin (Invitrogen).

[3] = target: B2; experiment: sucrose gradient sedimentation of HCC1806 whole cell extract, immunoblot of fractions
Description: (§2) Sucrose gradient fractionation. Sucrose gradient sedimentation analysis was performed as described previously (Bhatnagar et al., 2014). Briefly, 10-40% gradients were formed by layering 200 µl NEB1 buffer containing 10%, 20%, 30% or 40% sucrose in a 13 x 51 mm centrifuge tube (Beckman) and allowed to equilibrate at room temperature for 2 hrs. Gradients were chilled, loaded with […] HCC1806 extract (adjusted to a volume of 200 µl) or 200 µl molecular weight markers (Sigma MW-GF-1000), and centrifuged in a Beckman SW 55 Ti rotor at 214,000 g for 14 hrs. Twenty-five fractions of 200 µl were collected. For the markers, 20 µl of each fraction was electrophoresed and Coomassie stained.

RAD50 = target: T1, RAD50; experiment: as above
Description: as §2

Molecule: N#C/C(=C/c1ccc(O)c(O)c1)C(=O)NCc1ccccc1 [AG490]
TRIM37 upregulation following Dox-treatment (qRT-PCR) (MDA-MB-468 cells): blocks TRIM37 upregulation | Dox-induced STAT1, STAT3, and E2F1 recruitment to TRIM37 (ChIP) (TRIM37 [1]): substantially decreased

Molecule: COc1cccc2c1C(=O)c1c(O)c3c(c(O)c1C2=O)C[C@@](O)(C(C)=O)C[C@@H]3O[C@H]1C[C@H](N)[C@H](O)[C@H](C)O1 [daunorubicin]
TRIM37 expression post-treatment relative to DMSO (TRIM37 [2]): increased TRIM37 expression

Molecule: CCOc1ccc(C(Nc2ccccn2)c2ccc3ccc(C)nc3c2O)cc1C (stereo not drawn) [HLM006474]
TRIM37 upregulation following Dox-treatment (qRT-PCR) (MDA-MB-468 cells): blocks TRIM37 upregulation | Dox-induced STAT1, STAT3, and E2F1 recruitment to TRIM37 (ChIP) (TRIM37 [1]): substantially decreased

Molecule: O=c1cc(-c2cccc3c2Sc2ccccc2S3)oc(N2CCOCC2)c1 [KU000553]
TRIM37 upregulation following Dox-treatment (qRT-PCR) (MDA-MB-468 cells): blocks TRIM37 upregulation

Molecule: N.N.[Cl][Pt][Cl] [cisplatin]
TRIM37 expression post-treatment relative to DMSO (TRIM37 [2]): increased TRIM37 expression

Molecule: B1
binding result [3]: binds

Molecule: B2
binding result (RAD50): binds
